Reference: PMC8343220, “The selectivity of α‐adrenoceptor agonists for the human α1A, α1B, and α1D‐adrenoceptors” (Pharmacology Research & Perspectives, 2021)
Like-named read-outs stand apart in the source and are kept apart here. One block for each compound: values may come before it.

Columns and labels:
[1] = system: parental CHO cell line without any transfected receptors; assay: ERK1/2‐phosphorylation, parent CHO cells without transfected receptors; assay type: cell-based, Chinese hamster; conditions: for ERK1/2-phosphorylation % PDBu: maximal response as % of PDBu (10μM) response; for ERK1/2-phosphorylation % PDBu / ERK1/2-phosphorylation Log EC50: mean ± s.e.m.
[2] = system: parental CHO cell line without any transfected receptors; assay: Forskolin‐stimulated cAMP accumulation, parent CHO cells without transfected receptors; assay type: cell-based, Chinese hamster; conditions: CHO cells without transfected receptors; in presence of forskolin
human α1A‐adrenoceptor [3] = target: T1, human α1A‐adrenoceptor (Homo sapiens, UniProt P35348); assay: ^3H‐prazosin whole‐cell radioligand binding, CHO‐α1A cells
T1 construct: expressed in transfected cells; host or cells: CHO-K1
T1 sequence (P35348 1-466): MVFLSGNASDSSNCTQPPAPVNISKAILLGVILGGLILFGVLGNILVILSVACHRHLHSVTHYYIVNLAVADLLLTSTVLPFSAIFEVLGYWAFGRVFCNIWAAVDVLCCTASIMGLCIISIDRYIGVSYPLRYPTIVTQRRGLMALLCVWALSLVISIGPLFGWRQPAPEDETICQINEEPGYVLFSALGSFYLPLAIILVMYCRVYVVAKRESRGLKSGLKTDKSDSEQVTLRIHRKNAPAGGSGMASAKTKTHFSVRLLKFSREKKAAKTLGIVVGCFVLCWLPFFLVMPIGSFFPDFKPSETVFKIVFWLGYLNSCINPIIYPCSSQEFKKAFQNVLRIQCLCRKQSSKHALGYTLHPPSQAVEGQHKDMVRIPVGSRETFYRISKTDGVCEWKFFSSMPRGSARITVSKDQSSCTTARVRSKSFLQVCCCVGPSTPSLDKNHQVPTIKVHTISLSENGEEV

human α1B‐adrenoceptor [4] = target: T2, human α1B‐adrenoceptor (Homo sapiens, UniProt P35368); assay: ^3H‐prazosin whole‐cell radioligand binding, CHO‐α1B cells; conditions: CHO‐α1B cells; for Log KD, ^3H‐prazosin binding: whole‐cell binding (from Table 1), given as log KD (negative numbers); for Log KD α1B, ^3H‐prazosin whole cell binding: given as log KD (negative), mean ± SEM
T2 construct: expressed in transfected cells; host or cells: CHO-K1
T2 sequence (P35368 1-520): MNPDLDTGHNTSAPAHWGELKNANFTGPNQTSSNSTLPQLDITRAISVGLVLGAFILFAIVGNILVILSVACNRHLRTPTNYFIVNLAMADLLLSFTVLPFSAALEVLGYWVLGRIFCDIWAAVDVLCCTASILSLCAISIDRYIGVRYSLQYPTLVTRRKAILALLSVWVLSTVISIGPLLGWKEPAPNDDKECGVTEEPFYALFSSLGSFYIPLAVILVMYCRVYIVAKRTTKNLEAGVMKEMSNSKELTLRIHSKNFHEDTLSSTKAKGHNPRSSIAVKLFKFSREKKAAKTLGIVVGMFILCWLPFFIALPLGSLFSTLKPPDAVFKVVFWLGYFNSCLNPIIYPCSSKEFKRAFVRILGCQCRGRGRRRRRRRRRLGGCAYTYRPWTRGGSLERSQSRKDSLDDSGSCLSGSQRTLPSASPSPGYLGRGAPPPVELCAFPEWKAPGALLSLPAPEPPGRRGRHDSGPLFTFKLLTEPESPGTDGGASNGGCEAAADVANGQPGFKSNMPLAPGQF

[5] = target: T3, human α1D‐adrenoceptor (full length) (Homo sapiens, UniProt P25100); assay: ^3H‐prazosin whole‐cell radioligand binding, CHO‐α1D cells
T3 construct: human α1D‐adrenoceptor (full length) were used; expressed in transfected cells; host or cells: CHO-K1
T3 sequence (P25100 1-572): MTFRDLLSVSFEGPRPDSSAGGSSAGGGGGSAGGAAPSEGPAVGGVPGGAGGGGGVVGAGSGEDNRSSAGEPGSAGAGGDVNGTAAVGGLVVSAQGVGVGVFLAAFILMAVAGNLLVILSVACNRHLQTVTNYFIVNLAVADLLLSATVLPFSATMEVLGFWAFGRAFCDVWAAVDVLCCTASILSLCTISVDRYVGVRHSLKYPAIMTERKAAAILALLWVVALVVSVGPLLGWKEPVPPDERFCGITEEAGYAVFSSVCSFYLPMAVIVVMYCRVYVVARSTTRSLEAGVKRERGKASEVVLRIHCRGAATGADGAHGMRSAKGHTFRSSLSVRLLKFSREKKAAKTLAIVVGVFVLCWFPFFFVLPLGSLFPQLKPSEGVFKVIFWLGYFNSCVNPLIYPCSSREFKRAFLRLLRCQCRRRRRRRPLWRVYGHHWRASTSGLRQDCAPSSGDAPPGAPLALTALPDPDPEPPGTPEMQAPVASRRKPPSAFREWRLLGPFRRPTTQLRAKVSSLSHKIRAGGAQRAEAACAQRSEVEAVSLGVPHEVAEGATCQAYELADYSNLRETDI

human α1A‐adrenoceptor [6] = target: T1, human α1A‐adrenoceptor; assay: Intracellular free calcium mobilization, CHO‐α1A cells; assay type: cell-based
human α1B‐adrenoceptor [7] = target: T2, human α1B‐adrenoceptor; assay: Intracellular free calcium mobilization, CHO‐α1B cells; assay type: cell-based; conditions: CHO‐α1B cells; for Intracellular calcium release % Ionomycin at 100 µM: response at 100 µM ligand (no EC50 given), % of ionomycin response
[8] = target: T3, human α1D‐adrenoceptor (full length); assay: Intracellular free calcium mobilization, CHO‐α1D cells; assay type: cell-based; conditions: for Intracellular calcium release Log EC50: log values given negative; for Intracellular calcium release % ionomycin: maximal response as % of 10 µM ionomycin
human α1A‐adrenoceptor [9] = target: T1, human α1A‐adrenoceptor; assay: ERK1/2‐phosphorylation (Surefire Alphascreen), CHO‐α1A cells; assay type: cell-based
human α1B‐adrenoceptor [10] = target: T2, human α1B‐adrenoceptor; assay: ERK1/2‐phosphorylation (Surefire Alphascreen), CHO‐α1B cells; assay type: cell-based; conditions: for ERK1/2‐phosphorylation % PDBu: maximal response as % PDBu response
[11] = target: T3, human α1D‐adrenoceptor (full length); assay: ERK1/2‐phosphorylation (Surefire Alphascreen), CHO‐α1D cells; assay type: cell-based
human α1A‐adrenoceptor [12] = target: T1, human α1A‐adrenoceptor; assay: ^3H‐cAMP accumulation, CHO‐α1A cells; assay type: cell-based; conditions: CHO‐α1A cells; % of 10 µM forskolin response
[13] = CHO cells without transfected receptors
[14] = CHO‐α1D cells, given as log KD (negative), mean ± SEM, 'early plateau' = specific binding not fully inhibited
[15] = CHO‐α1B cells, for bi‐phasic responses the initial stimulatory part
[16] = CHO‐α1D cells, log values given negative
[17] = CHO‐α1D cells, maximal response as % of PDBu

SMILES: Nc1cc(Cl)c(N=C2NCCN2)c(Cl)c1 [Para-amino-clonidine]
ERK1/2-phosphorylation % PDBu [1, 13]: No response
cAMP accumulation (in presence of forskolin) Log EC50 [2]: No response

SMILES: C=CCN1CCc2nc(N)sc2CC1 [BHT920]
Affinity selectivity ratio α1A vs α1B (human α1A‐adrenoceptor [3]): 9.3 fold
Affinity selectivity ratio α1A vs α1D (human α1A‐adrenoceptor [3]): 1.6 fold
Log KD α1A, ^3H‐prazosin whole cell binding (human α1A‐adrenoceptor [3]): −4.70 ± 0.04
Log KD, ^3H‐prazosin binding (human α1B‐adrenoceptor [4]): −3.73
Log KD α1B, ^3H‐prazosin whole cell binding (human α1B‐adrenoceptor [4]): −3.73 ± 0.04
Affinity selectivity ratio α1B vs α1D [5]: 5.8 fold
3H‐prazosin binding Log KD ([5]; CHO‐α1D cells, whole‐cell binding (from Table 1), log values given negative): −4.49
Log KD α1D, ^3H‐prazosin whole cell binding [5, 14]: −4.49 ± 0.07
Intracellular calcium release % ionomycin (human α1A‐adrenoceptor [6]): 39.7 ± 3.3%
Intracellular calcium release Log EC50 (human α1A‐adrenoceptor [6]): −5.68 ± 0.09
Log efficacy ratio KD /EC50 (human α1A‐adrenoceptor [6]): 0.98
Intracellular calcium release % Ionomycin at 100 µM (human α1B‐adrenoceptor [7]): 16.3 ± 4.5%
Intracellular calcium release Log EC50 ([8]; CHO‐α1D cells): No response
Intracellular calcium release % ionomycin ([8]; CHO‐α1D cells): No response
ERK1/2‐phosphorylation % PDBu (human α1A‐adrenoceptor [9]): 61.4 ± 5.5%
ERK1/2‐phosphorylation Log EC50 (human α1A‐adrenoceptor [9]): −5.14 ± 0.05
ERK1/2‐phosphorylation Log EC50 (human α1B‐adrenoceptor [10]): −5.31 ± 0.04
ERK1/2‐phosphorylation % PDBu (human α1B‐adrenoceptor [10]; [15]): 12.2 ± 3.6%
ERK1/2‐phosphorylation Log EC50 [11]: No response
ERK1/2‐phosphorylation % PDBu [11, 17]: No response
ERK1/2-phosphorylation % PDBu at 100μM ([1]; CHO cells without transfected receptors, response at 100μM only, EC50 not obtainable, % of PDBu (10μM)): 3.8 ± 1.8%

Further lines, with some results ahead:

Kd (human α1A‐adrenoceptor [3]; Log KD α1A, ^3H‐prazosin whole cell binding, CHO‐α1A cells, given as log KD (negative), mean ± SEM): 32.4 µM
Affinity selectivity ratio α1A vs α1B (human α1A‐adrenoceptor [3]; higher affinity for α1A than α1B): >3.1 fold
IC50 (human α1B‐adrenoceptor [4]; printed as IC50> log value): > 100 µM
Kd ([5]; 3H‐prazosin binding Log KD, CHO‐α1D cells, whole‐cell binding (from Table 1), log values given negative): 18.6 µM
Kd [5, 14]: 18.6 µM
Affinity selectivity ratio α1A vs α1D ([5]; higher affinity for α1D than α1A): 1.7 fold
Affinity selectivity ratio α1B vs α1D ([5]; higher affinity for α1D than α1B): >5.4 fold
Log efficacy ratio KD /EC50 (human α1A‐adrenoceptor [6]; CHO‐α1A cells, binding KD and calcium EC50): 1.19
EC50 (human α1A‐adrenoceptor [6]; CHO‐α1A cells, given as log EC50 (negative), read-out: Intracellular calcium release Log EC50 (converted)): 2.09 µM
Intracellular calcium release % ionomycin (human α1A‐adrenoceptor [6]; CHO‐α1A cells, maximal response as % of 10 µM ionomycin): 45.9 ± 3.8%
Intracellular calcium release % Ionomycin at 100 µM (human α1B‐adrenoceptor [7]): 20.0 ± 3.9%
Intracellular calcium release % Ionomycin at 100 µM [8]: 12.0 ± 0.9%
ERK1/2‐phosphorylation % PDBu at 10 µM (human α1A‐adrenoceptor [9]; CHO‐α1A cells, response at 10 μM ligand, no EC50 obtained): 89.0 ± 3.9%
ERK1/2‐phosphorylation Log EC50 (human α1B‐adrenoceptor [10]; [15]): No response
ERK1/2‐phosphorylation % PDBu (human α1B‐adrenoceptor [10]; [15]): No response
ERK1/2‐phosphorylation % PDBu [11]: No response
ERK1/2‐phosphorylation Log EC50 [11, 16]: No response
SMILES: C1COC(NC(C2CC2)C2CC2)=N1 [Rilmenidine]
ERK1/2-phosphorylation % PDBu [1, 13]: No response
ERK1/2-phosphorylation Log EC50 [1, 13]: No response

Log KD, ^3H‐prazosin binding (human α1B‐adrenoceptor [4]): No binding
Log KD α1B, ^3H‐prazosin whole cell binding (human α1B‐adrenoceptor [4]): No binding
3H‐prazosin binding log IC50 (bound, printed in Log KD column) ([5]; CHO‐α1D cells, whole‐cell binding, given as IC50 > log value): IC50 > −3
IC50 ([5]; CHO‐α1D cells, printed as IC50> log value): > 1000 µM
Intracellular calcium release % Ionomycin at 100 µM (human α1B‐adrenoceptor [7]): 16.9 ± 2.0%
Intracellular calcium release Log EC50 ([8]; CHO‐α1D cells): No response
Intracellular calcium release % ionomycin ([8]; CHO‐α1D cells): No response
ERK1/2‐phosphorylation % PDBu at 100 µM (human α1A‐adrenoceptor [9]; CHO‐α1A cells, response at 100 μM ligand, no EC50 obtained): 87.7 ± 11.0%
ERK1/2‐phosphorylation % PDBu at 100 µM (human α1B‐adrenoceptor [10]; CHO‐α1B cells, response at 100 µM ligand (no EC50 given)): 20.4 ± 8.0%
ERK1/2‐phosphorylation Log EC50 [11, 16]: No response
ERK1/2‐phosphorylation % PDBu [11, 17]: No response
SMILES: COc1ccc(OC)c(C(O)CNC(=O)CN)c1 (centres unmarked) [Midodrine]
ERK1/2-phosphorylation % PDBu [1, 13]: No response
ERK1/2-phosphorylation Log EC50 [1, 13]: No response

Intracellular calcium release % ionomycin (human α1B‐adrenoceptor [7]; maximal response as % of 10 µM ionomycin response): 53.9 ± 3.3%
Intracellular calcium release % Ionomycin at 100 µM ([8]; CHO‐α1D cells, response at 100 µM ligand (no EC50 given)): 3.6 ± 1.2%
ERK1/2‐phosphorylation % PDBu (human α1B‐adrenoceptor [10]; [15]): 77.8 ± 8.5%
ERK1/2‐phosphorylation % PDBu [11, 17]: 8.5 ± 1.7%
cAMP accumulation % forskolin (human α1A‐adrenoceptor [12]): 16.2 ± 3.0%
SMILES: CC(C)NCC(O)c1ccc(O)c(O)c1 (centres unmarked) [Isoprenaline]
Emax at 100 µM ([1]; Cricetulus griseus, CHO, read-out: ERK1/2-phosphorylation % PDBu at 100μM): 5.1 ± 4.6%
cAMP accumulation (in presence of forskolin) Log EC50 [2]: No response
